Measured values published in US10961256B2, “PRMT5 inhibitors” (priority 2016, dated 2021).

How the values were obtained:
[1] = target: Full-length PRMT5 enzyme co-expressed with His6-MEP50 (Homo sapiens (Human), UniProt O14744); assay: PRMT5 Biochemical Assay; conditions: histone H4 derived peptide substrate, Transcreener EPIGEN methyltransferase assay, 4 hours at 37 degree Celsius
Protocol: Compounds of the invention may be tested for in vitro activity in the following assay: A histone H4 derived peptide is used as substrate (amino acid sequence: […]NH2). Full-length PRMT5 enzyme (NCBI Reference sequence NP_006100.2) was co-expressed with His6-MEP50 in insect cells and purified via Nickel immobilized metal affinity and gel filtration chromatography (“the enzyme”).
The 6 μL reactions are run in Greiner brand black 384-well low volume assay plates. All reactions contained assay buffer (phosphate buffered saline, 0.01% (v/v) Tween-20, 0.01% (w/v) albumin from chicken egg white, 1 mM Dithiothreitol, 1 μM peptide substrate, 1 μM S-Adenosyl methionine, and 15 ng/reaction enzyme, with the enzyme being omitted from negative control reactions. Compounds were added in a volume of 100 nL from dilution series prepared in DMSO, positive and negative control reactions receiving the same volume DMSO without compound. The plates were sealed with adhesive seals and incubated for 4 hours at 37 degree Celsius. Reaction progress was measured using the Transcreener™ EPIGEN methyltransferase assay (BellBrook Labs, Madison, Wis.) as recommended by the manufacturer. To each reaction 2 μL detection mix were added, containing coupling enzymes, fluorescence polarisation tracer, and AMP antibody. Plates were incubated for 90 minutes before being read on a PerkinElmer EnVision™ plate reader in fluorescence polarisation mode.

[2] = tested on: symmetrical dimethylation of arginine (Di-Methyl Histone H4 Arginine 3) in TE11 cells; assay: cells; conditions: Homo sapiens, TE-11, 72 h
Protocol: Compounds of the invention may be tested for potency to inhibit symmetrical dimethylation of arginine in the following assay:
The cell line TE11 was seeded at a density of 6,000 cells per well in 96 well optical quality tissue culture plates in DME medium and 10% foetal bovine serum, and allowed to adhere for 5 hours under standard culture conditions (37 degree Celsius, 5% CO2). […] After incubation for 72 hours, the cells were fixed with 3.7% formaldehyde in PBS for 30 minutes at room temperature, washed with phosphate buffer saline and blocked with Odyssey blocking buffer (LI-COR, Lincoln, Nebr.). Rabbit anti-Di-Methyl Histone H4 Arginine 3 specific antibody (Epigentek) in Odyssey blocking buffer was added and incubated for 14 hours at 4 degree Celsius.

Full-length PRMT5 enzyme co-expressed with His6-MEP50, sequence (O14744 whole entry): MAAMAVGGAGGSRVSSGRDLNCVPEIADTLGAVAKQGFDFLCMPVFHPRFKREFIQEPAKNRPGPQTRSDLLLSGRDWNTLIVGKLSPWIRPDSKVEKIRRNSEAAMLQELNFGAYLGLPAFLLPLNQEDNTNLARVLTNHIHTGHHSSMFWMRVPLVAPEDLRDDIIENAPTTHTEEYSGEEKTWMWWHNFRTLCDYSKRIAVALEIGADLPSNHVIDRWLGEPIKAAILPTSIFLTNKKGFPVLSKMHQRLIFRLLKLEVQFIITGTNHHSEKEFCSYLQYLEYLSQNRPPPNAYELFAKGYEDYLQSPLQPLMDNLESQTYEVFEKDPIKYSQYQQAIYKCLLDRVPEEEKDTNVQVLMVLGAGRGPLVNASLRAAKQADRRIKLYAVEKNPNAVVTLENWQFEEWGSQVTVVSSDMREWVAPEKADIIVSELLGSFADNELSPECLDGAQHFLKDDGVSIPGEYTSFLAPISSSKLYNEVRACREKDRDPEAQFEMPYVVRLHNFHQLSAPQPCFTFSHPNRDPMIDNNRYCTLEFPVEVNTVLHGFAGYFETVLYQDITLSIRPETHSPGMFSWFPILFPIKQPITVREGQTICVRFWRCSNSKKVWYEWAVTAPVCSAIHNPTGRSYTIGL
Full-length PRMT5 enzyme co-expressed with His6-MEP50, sequence (Q9BQA1 whole entry partner): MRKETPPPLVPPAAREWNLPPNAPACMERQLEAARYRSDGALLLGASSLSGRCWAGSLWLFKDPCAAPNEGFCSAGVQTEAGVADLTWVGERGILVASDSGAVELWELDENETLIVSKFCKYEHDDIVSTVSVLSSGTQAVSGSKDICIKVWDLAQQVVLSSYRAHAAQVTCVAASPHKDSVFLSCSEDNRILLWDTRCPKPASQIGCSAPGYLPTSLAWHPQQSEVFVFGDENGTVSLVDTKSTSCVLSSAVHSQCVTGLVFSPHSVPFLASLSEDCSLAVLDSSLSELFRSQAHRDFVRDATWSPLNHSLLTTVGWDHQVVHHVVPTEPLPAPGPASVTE

SMILES	IC50 [1]	IC50 [2]
Cc1nn(C[C@@H](O)CNC2Cc3ccccc3C2)c(=O)c2ccc(C(=O)N3C4CCC3COC4)cc12 [Compound 2, 6-(3-Oxa-8-azabicyclo[3.2.1]octane-8-carbonyl)-2-((S)-3-((2,3-dihydro-1H-Inden-2-yl)amino)-2-hydroxypropyl)-4-methylphthalazin-1(2H)-one]	170 nM	18 nM
Cc1nn(CC(O)CNC2Cc3ccccc3C2)c(=O)c2ccccc12 (centres unmarked) [Compound 1, 2-(3-((2,3-Dihydro-1H-inden-2-yl)amino)-2-hydroxypropyl)-4-methylphthalazin-1(2H)-one]	4530 nM	
CCc1nn(C[C@@H](O)CNC2Cc3ccccc3C2)c(=O)c2ccc(C(=O)N3C4CCC3COC4)cc12 [Compound 3, 6-(3-Oxa-8-azabicyclo[3.2.1]octane-8-carbonyl)-2-((S)-3-((2,3-dihydro-1H-Inden-2-yl)amino)-2-hydroxypropyl)-4-ethylphthalazin-1(2H)-one]	30 nM	1.9 nM
